According to article PMC7560154, “Novel Antimicrobial Peptide from Temporin L in The Treatment of Staphylococcus pseudintermedius and Malassezia pachydermatis in Polymicrobial Inter-Kingdom Infection” (Antibiotics, 2020):
In brackets after ≈: the same amount, converted by molar mass. Read-outs that look alike come from different tables or passages of the source. Where a SMILES comes first, the peptide text is derived from it. [ ]: non-standard residue; d: D form. Hyp = O=C(O)[C@@H]1C[C@@H](O)CN1; dHyp = O=C(O)[C@H]1C[C@H](O)CN1; Aic = NC1(C(=O)O)Cc2ccccc2C1; dNle = CCCC[C@@H](N)C(=O)O

Assays:
[1] = tested on: methicillin-resistant S. pseudintermedius (MRSP); test: microbe, parasite or virus in culture; assay type: cell-based, Staphylococcus pseudintermedius; conditions: Staphylococcus pseudintermedius, 24 h
Experimental: (§1) MIC of all compounds was determined in Sabouraud Dextrose broth with 1% tween 80 (SB) medium, for M. pachydermatis, and Mueller–Hinton broth (MH), for S. pseudintermedius, by the broth microdilution assay (BMD) in 96-well microtiter plates, as previously reported. Specifically, SB containing 1% Tween 80 was used instead of RPMI 1640 medium. All compounds were dissolved in ethanol and ketoconazole in dimethyl sulfoxide (DMSO). The solutions were serially diluted in SB and MH two-fold from 0.19 to 50 μM. M. pachydermatis suspension was prepared from 3-day-old colonies grown on Sabouraud agar at 30 °C. The final concentration of the yeast inoculum suspensions was equivalent to 1–3 × 10^3 CFU/mL. Bacterial suspensions were diluted to yield an optical density (OD) around 0.5 at 595 nm and further diluted to a final concentration of 1 × 10^6 CFU/mL. The compounds were added to the microbial suspension in each well yielding a final cell concentration of 5 × 10^5 CFU/mL. Positive controls included oxacillin 5 μM (2 μg/mL) and vancomycin 1.4 μM (2 μg/mL) for S. pseudintermedius or ketoconazole 0.2 μM (0.125 μg/mL) for M. pachydermatis. Negative control wells were set to contain bacteria in MH or yeasts in SB plus the amount of ethanol used to dilute each compound. Medium turbidity was measured by a microtiter plate reader (Tecan, Milan, Italy) at 595 nm after 24 h for S. pseudintermedius and 48 h for M. pachydermatis. Absorbance was proportional to microbial growth. The MIC was defined as the lowest concentration of drug that caused a prominent decrease (≥90% inhibition) in visible growth relative to that of the growth control.

[2] = tested on: methicillin-susceptible S. pseudintermedius (MSSP); test: microbe, parasite or virus in culture; assay type: cell-based, Staphylococcus pseudintermedius; conditions: Staphylococcus pseudintermedius, 24 h
Experimental: as §1

[3] = tested on: MRSP; test: Checkerboard synergy of peptide 8 and oxacillin; assay type: cell-based, Staphylococcus pseudintermedius
Experimental: The interaction between peptide 8 and oxacillin against MRSP was evaluated by the checkerboard method. Briefly, twofold serial dilutions of oxacillin distributed in horizontal rows of 96-well microtiter plate were cross-diluted vertically by twofold serial dilutions of peptide 8 to at least double the MIC. The peptide 8 tested concentration ranging from 0.19 to 12.5 μM and oxacillin from 1.25 to 25 μM (0.5 to 10 μg/mL). Microtiter plates were inoculated with bacteria at an approximate concentration of 10^5 CFU/mL and incubated at 37 °C for 24 h. […] To evaluate the effect of the combination treatment, the fractional inhibitory concentration (FIC) index for each combination was calculated as follows: FIC index = FIC of peptide 8 + FIC of oxacillin, where FIC of peptide 8 (or oxacillin) was defined as the ratio of MIC of peptide 8 (or oxacillin) in combination and MIC of peptide 8 (or oxacillin) alone. The FIC index values were interpreted as follows: ≤0.5, synergistic; >0.5 to ≤1.0, additive; >1.0 to ≤2.0, indifferent; and >2.0, antagonistic effects.

[4] = tested on: M. pachydermatis; conditions: for MIC Values: broth microdilution, Sabouraud dextrose broth + 1% Tween 80, 48 h, ≥90% inhibition of growth, OD 595 nm; for MMC/MIC Ratio: M. pachydermatis; for MMC Values (minimum mycocidal concentration): ≥3 log10 reduction in colony count from starting inoculum, agar 72 h at 30 °C
Experimental: as §1

SMILES | MIC Values [4] [µM] | MMC/MIC Ratio [4] | MMC Values (minimum mycocidal concentration) [4] [µM] | other results
Cc1onc(-c2ccccc2)c1C(=O)N[C@@H]1C(=O)N2[C@@H]1SC(C)(C)[C@@H]2C(=O)O [Oxacillin, oxacillin, reference compound] |  |  |  | MIC ([1]; MRSP, Mueller-Hinton broth, ≥90% inhibition, three independent experiments in triplicate, read-out: MIC): 25 µM (≈ 10 µg/mL); MIC ([2]; MSSP, Mueller-Hinton broth, ≥90% inhibition, three independent experiments in triplicate, read-out: MIC): < 5 µM; Oxacillin MIC value reduction in combination with peptide 8 ([3]; MRSP, oxacillin alone versus oxacillin in combination): about eight; Concentration of oxacillin in the most synergistic combination ([3]; with 1.56 μM peptide 8, MRSP, 1/8 MIC): 3.1 µM
CC[C@H](C)[C@H](NC(=O)[C@H](CCCNC(=N)N)NC(=O)CNC(=O)[C@@H](CC(C)C)NC(=O)[C@H](Cc1ccccc1)NC(=O)[C@H](CCCCN)NC(=O)[C@H](CO)NC(=O)[C@H](Cc1ccccc1)NC(=O)[C@H](Cc1c[nH]c2ccccc12)NC(=O)[C@@H]1CCCN1C(=O)[C@@H](NC(=O)[C@@H](N)Cc1ccccc1)C(C)C)C(=O)N[C@@H](CC(C)C)C(N)=O [Peptide 1] (H-FVPWFSKF[dL]GRIL-NH2) | 25 |  |  | 
CC[C@H](C)[C@H](NC(=O)[C@H](CCCNC(=N)N)NC(=O)[C@@H]1CCCN1C(=O)[C@@H](CC(C)C)NC(=O)[C@H](Cc1ccccc1)NC(=O)[C@H](CCCCN)NC(=O)[C@H](CO)NC(=O)[C@H](Cc1ccccc1)NC(=O)[C@H](Cc1c[nH]c2ccccc12)NC(=O)[C@@H]1CCCN1C(=O)[C@@H](NC(=O)[C@@H](N)Cc1ccccc1)C(C)C)C(=O)N[C@@H](CC(C)C)C(N)=O [Peptide 2] (H-FVPWFSKF[dL]PRIL-NH2) | 25 | 4 | 100 | 
CC[C@H](C)[C@H](NC(=O)[C@H](CCCNC(=N)N)NC(=O)[C@H]1CCCN1C(=O)[C@@H](CC(C)C)NC(=O)[C@H](Cc1ccccc1)NC(=O)[C@H](CCCCN)NC(=O)[C@H](CO)NC(=O)[C@H](Cc1ccccc1)NC(=O)[C@H](Cc1c[nH]c2ccccc12)NC(=O)[C@@H]1CCCN1C(=O)[C@@H](NC(=O)[C@@H](N)Cc1ccccc1)C(C)C)C(=O)N[C@@H](CC(C)C)C(N)=O [Peptide 3] (H-FVPWFSKF[dL][dP]RIL-NH2) | 25 | 4 | 100 | 
CC[C@H](C)[C@H](NC(=O)[C@H](CCCNC(=N)N)NC(=O)[C@@H]1C[C@@H](O)CN1C(=O)[C@@H](CC(C)C)NC(=O)[C@H](Cc1ccccc1)NC(=O)[C@H](CCCCN)NC(=O)[C@H](CO)NC(=O)[C@H](Cc1ccccc1)NC(=O)[C@H](Cc1c[nH]c2ccccc12)NC(=O)[C@@H]1CCCN1C(=O)[C@@H](NC(=O)[C@@H](N)Cc1ccccc1)C(C)C)C(=O)N[C@@H](CC(C)C)C(N)=O [Peptide 4] (H-FVPWFSKF[dL][Hyp]RIL-NH2) | 25 | 4 | 100 | 
CC[C@H](C)[C@H](NC(=O)[C@H](CCCNC(=N)N)NC(=O)[C@H]1C[C@H](O)CN1C(=O)[C@@H](CC(C)C)NC(=O)[C@H](Cc1ccccc1)NC(=O)[C@H](CCCCN)NC(=O)[C@H](CO)NC(=O)[C@H](Cc1ccccc1)NC(=O)[C@H](Cc1c[nH]c2ccccc12)NC(=O)[C@@H]1CCCN1C(=O)[C@@H](NC(=O)[C@@H](N)Cc1ccccc1)C(C)C)C(=O)N[C@@H](CC(C)C)C(N)=O [Peptide 5] (H-FVPWFSKF[dL][dHyp]RIL-NH2) |  | 4 | 100 | 
CCCC[C@@H](NC(=O)[C@@H](CC(C)C)NC(=O)[C@H](Cc1ccccc1)NC(=O)[C@H](CCCCN)NC(=O)[C@H](CO)NC(=O)[C@H](Cc1ccccc1)NC(=O)[C@H](Cc1c[nH]c2ccccc12)NC(=O)[C@@H]1CCCN1C(=O)[C@@H](NC(=O)[C@@H](N)Cc1ccccc1)C(C)C)C(=O)N[C@@H](CCCNC(=N)N)C(=O)N[C@H](C(=O)N[C@@H](CC(C)C)C(N)=O)[C@@H](C)CC [Peptide 6] (H-FVPWFSKF[dL][dNle]RIL-NH2; N-terminus assumed) | 25 | 4 | 100 | 
CC[C@H](C)[C@H](NC(=O)[C@H](CCCNC(=N)N)NC(=O)[C@H](CCCCN)NC(=O)[C@@H](CC(C)C)NC(=O)[C@H](Cc1ccccc1)NC(=O)[C@H](CCCCN)NC(=O)[C@H](CO)NC(=O)[C@H](Cc1ccccc1)NC(=O)[C@H](Cc1c[nH]c2ccccc12)NC(=O)[C@@H]1CCCN1C(=O)[C@@H](NC(=O)[C@@H](N)Cc1ccccc1)C(C)C)C(=O)N[C@@H](CC(C)C)C(N)=O [Peptide 7] (H-FVPWFSKF[dL]KRIL-NH2; N-terminus assumed) | 12.5 | 2 | 25 | 
CC[C@H](C)[C@H](NC(=O)[C@H](CCCNC(=N)N)NC(=O)[C@H](Cc1c[nH]c2ccccc12)NC(=O)[C@@H](CC(C)C)NC(=O)[C@H](Cc1ccccc1)NC(=O)[C@H](CCCCN)NC(=O)[C@H](CO)NC(=O)[C@H](Cc1ccccc1)NC(=O)[C@H](Cc1c[nH]c2ccccc12)NC(=O)[C@@H]1CCCN1C(=O)[C@@H](NC(=O)[C@@H](N)Cc1ccccc1)C(C)C)C(=O)N[C@@H](CC(C)C)C(N)=O [Peptide 9] (H-FVPWFSKF[dL]WRIL-NH2) | 25 | 4 | 100 | 
CC[C@H](C)[C@H](NC(=O)[C@H](CCCNC(=N)N)NC(=O)[C@@H](Cc1c[nH]c2ccccc12)NC(=O)[C@@H](CC(C)C)NC(=O)[C@H](Cc1ccccc1)NC(=O)[C@H](CCCCN)NC(=O)[C@H](CO)NC(=O)[C@H](Cc1ccccc1)NC(=O)[C@H](Cc1c[nH]c2ccccc12)NC(=O)[C@@H]1CCCN1C(=O)[C@@H](NC(=O)[C@@H](N)Cc1ccccc1)C(C)C)C(=O)N[C@@H](CC(C)C)C(N)=O [Peptide 10] (H-FVPWFSKF[dL][dW]RIL-NH2) | 12.5 | 2 | 25 | 
CC[C@H](C)[C@H](NC(=O)[C@H](CCCNC(=N)N)NC(=O)C1(NC(=O)[C@@H](CC(C)C)NC(=O)[C@H](Cc2ccccc2)NC(=O)[C@H](CCCCN)NC(=O)[C@H](CO)NC(=O)[C@H](Cc2ccccc2)NC(=O)[C@H](Cc2c[nH]c3ccccc23)NC(=O)[C@@H]2CCCN2C(=O)[C@@H](NC(=O)[C@@H](N)Cc2ccccc2)C(C)C)Cc2ccccc2C1)C(=O)N[C@@H](CC(C)C)C(N)=O [Peptide 11] (H-FVPWFSKF[dL][Aic]RIL-NH2) | 25 | 4 | 100 | 
CN[C@H](CC(C)C)C(=O)N[C@H]1C(=O)N[C@@H](CC(N)=O)C(=O)N[C@H]2C(=O)N[C@H]3C(=O)N[C@H](C(=O)N[C@H](C(=O)O)c4cc(O)cc(O)c4-c4cc3ccc4O)[C@H](O)c3ccc(c(Cl)c3)Oc3cc2cc(c3O[C@@H]2O[C@H](CO)[C@@H](O)[C@H](O)[C@H]2O[C@H]2C[C@](C)(N)[C@H](O)[C@H](C)O2)Oc2ccc(cc2Cl)[C@H]1O [Vancomycin, vancomycin, reference compound] |  |  |  | MIC [1]: < 1.4 µM; MIC [2]: < 1.4 µM
